Assay results taken from the CheMixHub viscosity set.

Assay: xn = mol fraction of the nth substance listed

C=CC#N + CCCO
viscosity [mPa·s], 101.33 kPa
Settings	x1 = 0.1031	x1 = 0.203	x1 = 0.307	x1 = 0.4079	x1 = 0.5104	x1 = 0.6066	x1 = 0.7057	x1 = 0.8002	x1 = 0.9032
298.15 K	1.409	1.074	0.85	0.688	0.578	0.497	0.435	0.393	0.36
303.15 K	1.264	0.975	0.778	0.635	0.538	0.465	0.412	0.373	0.343
308.15 K	1.139	0.888	0.71	0.59	0.503	0.438	0.389	0.355	0.328

CC(=O)CC(C)=O + CCCO
303.15 K, 101 kPa
Settings	viscosity [mPa·s]
x1 = 0.05	1.453
x1 = 0.1	1.271
x1 = 0.2999	0.922
x1 = 0.4999	0.769
x1 = 0.6999	0.697
x1 = 0.8994	0.673
x1 = 0.9487	0.667

CN(C)c1ccccc1 + CCCO
viscosity [mPa·s]
Settings	303.15 K	308.15 K	313.15 K	318.15 K	323.15 K
101 kPa, x1 = 0.0503	1.685	–	–	–	–
101 kPa, x1 = 0.1049	1.625	–	–	–	–
101 kPa, x1 = 0.1825	1.552	–	–	–	–
101 kPa, x1 = 0.2575	1.482	–	–	–	–
101 kPa, x1 = 0.3423	1.413	–	–	–	–
101 kPa, x1 = 0.3929	1.377	–	–	–	–
101 kPa, x1 = 0.4121	1.365	–	–	–	–
101 kPa, x1 = 0.4703	1.328	–	–	–	–
101 kPa, x1 = 0.5523	1.29	–	–	–	–
101 kPa, x1 = 0.6229	1.265	–	–	–	–
101 kPa, x1 = 0.7221	1.242	–	–	–	–
101 kPa, x1 = 0.8096	1.225	–	–	–	–
101 kPa, x1 = 0.9023	1.198	–	–	–	–
101.33 kPa, x1 = 0.1011	1.587	1.335	1.205	1.091	0.9913
101.33 kPa, x1 = 0.1989	1.345	1.214	1.1	1.005	0.9196
101.33 kPa, x1 = 0.2994	1.249	1.134	1.033	0.9491	0.8709
101.33 kPa, x1 = 0.4015	1.194	1.09	0.9974	0.9328	0.8513
101.33 kPa, x1 = 0.4992	1.153	1.057	0.9763	0.9019	0.8384
101.33 kPa, x1 = 0.598	1.126	1.034	0.9608	0.8881	0.8254
101.33 kPa, x1 = 0.7024	1.117	1.044	0.965	0.8981	0.8357
101.33 kPa, x1 = 0.798	1.126	1.037	0.9602	0.8961	0.8364
101.33 kPa, x1 = 0.9026	1.154	1.071	0.9947	0.9284	0.8751

C=CC#N + CCCOC(C)=O
viscosity [mPa·s], 101.33 kPa
Settings	x1 = 0.1052	x1 = 0.1835	x1 = 0.2994	x1 = 0.4057	x1 = 0.4982	x1 = 0.6097	x1 = 0.7023	x1 = 0.8019	x1 = 0.901
298.15 K	0.54	0.524	0.5	0.479	0.459	0.435	0.411	0.387	0.362
303.15 K	0.504	0.489	0.47	0.452	0.434	0.411	0.391	0.368	0.345
308.15 K	0.472	0.46	0.442	0.428	0.411	0.392	0.372	0.352	0.331

C=CC#N + CCO
viscosity [mPa·s], 101.33 kPa
Settings	x1 = 0.1008	x1 = 0.1009	x1 = 0.2017	x1 = 0.3022	x1 = 0.403	x1 = 0.5025	x1 = 0.6044	x1 = 0.7032	x1 = 0.8006	x1 = 0.8993
298.15 K	–	0.859	0.704	0.593	0.513	0.458	0.415	0.384	0.363	0.348
303.15 K	–	0.787	0.648	0.551	0.48	0.431	0.392	0.364	0.345	0.332
308.15 K	0.724	–	0.602	0.513	0.451	0.405	0.371	0.347	0.329	0.318

CC(=O)CC(C)=O + CCO
303.15 K, 101 kPa
Settings	viscosity [mPa·s]
x1 = 0.05	0.896
x1 = 0.0997	0.825
x1 = 0.3	0.702
x1 = 0.5	0.655
x1 = 0.6989	0.644
x1 = 0.9	0.651
x1 = 0.948	0.657

CC(C)(N)CO + CCO
313.15 K, 100 kPa
Settings	viscosity [mPa·s]
x1 = 0.03	0.91
x1 = 0.054	1.05
x1 = 0.11	1.3
x1 = 0.26	2.32

CCCCC(C)O (stereo unspecified) + CCO
298.15 K, 101.33 kPa
Settings	viscosity [mPa·s]
x2 = 0.1065	3.783
x2 = 0.2102	3.485
x2 = 0.3167	3.115
x2 = 0.4096	2.827
x2 = 0.5036	2.512
x2 = 0.6033	2.16
x2 = 0.7079	1.836
x2 = 0.8023	1.572
x2 = 0.9063	1.301

CCCCOC(=O)c1ccccc1C(=O)OCCCC + CCO
303.15 K, 101.33 kPa
Settings	viscosity [mPa·s]
x1 = 0.0982	1.555
x1 = 0.1991	2.302
x1 = 0.4046	4.211
x1 = 0.5046	5.31
x1 = 0.5634	6.002
x1 = 0.694	7.761
x1 = 0.807	9.476
x1 = 0.8877	10.91
x1 = 0.9316	11.68

C=CC#N + CCOC(C)=O
viscosity [mPa·s]
Settings	298.15 K	303.15 K	308.15 K
101.3 kPa, x1 = 0.0974	–	0.3987	–
101.3 kPa, x1 = 0.201	–	0.394	–
101.3 kPa, x1 = 0.302	–	0.3883	–
101.3 kPa, x1 = 0.3997	–	0.3824	–
101.3 kPa, x1 = 0.4964	–	0.3739	–
101.3 kPa, x1 = 0.5946	–	0.3654	–
101.3 kPa, x1 = 0.6974	–	0.3546	–
101.3 kPa, x1 = 0.7978	–	0.3413	–
101.3 kPa, x1 = 0.9018	–	0.3263	–
101.33 kPa, x1 = 0.1002	0.442	0.419	0.398
101.33 kPa, x1 = 0.2025	0.429	0.403	0.383
101.33 kPa, x1 = 0.3034	0.42	0.397	0.377
101.33 kPa, x1 = 0.4047	0.408	0.387	0.369
101.33 kPa, x1 = 0.5034	0.4	0.379	0.361
101.33 kPa, x1 = 0.5994	0.39	0.368	0.352
101.33 kPa, x1 = 0.7007	0.381	0.364	0.351
101.33 kPa, x1 = 0.8021	0.369	0.358	0.344
101.33 kPa, x1 = 0.9003	0.358	0.349	0.328
